Data as given in US20210317401A1, “USE OF CYSTEINE OR SALT THEREOF FOR CRYOPROTECTING LACTIC ACID BACTERIA” (CJ CHEILJEDANG CORPORATION, priority 2018, published 2021).

Columns and labels:
[1] = tested on: Lactobacillus plantarum CJLP133; experiment: High-concentration culturing of lactic acid bacteria, O.D. value; format: cell-based; details: 0.1% in MRS liquid medium; from O.D. results
Method: (§1) A Lactobacillus plantarum CJLP133 strain was cultured at 37° C. for 11 hours in an MRS liquid medium (Difco, USA) containing 0.1% of cysteine monohydrochloride.
(§2) A Lactobacillus plantarum CJLP133 strain was cultured at 37° C. for 11 hours in an MRS liquid medium (Difco, USA) not containing 0.1% of cysteine monohydrochloride.
The evaluation of the lactic acid bacteria culturing was measured by diluting a lactic acid bacteria culture solution 20 times at 600 nm using a spectrophotometer (NanoPhotometer, IMPLEN) according to the method for measuring an optical density (O.D.) value of Korean Food Additives Codex.

[2] = tested on: Lactobacillus plantarum CJLP133; experiment: High-concentration culturing of lactic acid bacteria, number of live bacteria; format: cell-based; details: 0.1% in MRS liquid medium; from live bacteria counts
Method: as §1, §2
A lactic acid bacteria culture solution was diluted with sterilized physiological water and smeared so that 30 to 300 colonies were formed in an MRS agar plate medium, and then cultured at 37° C. for 24 hours. The number of colonies observed after the culturing was counted and calculated as the number of live bacteria per mL.

`Cl.N[C@@H](CS)C(=O)O` [cysteine monohydrochloride] was tested, and the “ability to accelerate the growth of lactic acid bacteria (in words)” value [1] was “excellent” and the “ability to accelerate the growth of lactic acid bacteria (in words)” value [2] was “excellent”.
